Source: US20230081390A1, “INHIBITORS OF RAF KINASES” (Kinnate Biopharma Inc., priority 2019, published 2023)

Molecular target: human RAF1 (Homo sapiens, UniProt P04049)
Assay: Protein kinase assay (33P-ATP filter binding), human RAF1, 10-dose IC50
Format: biochemical
Settings: MEK1 (K97R) substrate 3 micromolar, ATP 10 micromolar, read-out: RAF-1 IC50
In short: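 Human RAF1 phosphorylated human MEK1 (K97R) substrate at 3 µM with 10 µM ATP (³³P), in pH 7.5 HEPES buffer with MgCl2, EGTA, Brij35, BSA, Na3VO4 and DTT. Reactions ran for 2 hr at room temperature with P81 filter capture.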

Chain of human RAF1 (P04049 whole entry): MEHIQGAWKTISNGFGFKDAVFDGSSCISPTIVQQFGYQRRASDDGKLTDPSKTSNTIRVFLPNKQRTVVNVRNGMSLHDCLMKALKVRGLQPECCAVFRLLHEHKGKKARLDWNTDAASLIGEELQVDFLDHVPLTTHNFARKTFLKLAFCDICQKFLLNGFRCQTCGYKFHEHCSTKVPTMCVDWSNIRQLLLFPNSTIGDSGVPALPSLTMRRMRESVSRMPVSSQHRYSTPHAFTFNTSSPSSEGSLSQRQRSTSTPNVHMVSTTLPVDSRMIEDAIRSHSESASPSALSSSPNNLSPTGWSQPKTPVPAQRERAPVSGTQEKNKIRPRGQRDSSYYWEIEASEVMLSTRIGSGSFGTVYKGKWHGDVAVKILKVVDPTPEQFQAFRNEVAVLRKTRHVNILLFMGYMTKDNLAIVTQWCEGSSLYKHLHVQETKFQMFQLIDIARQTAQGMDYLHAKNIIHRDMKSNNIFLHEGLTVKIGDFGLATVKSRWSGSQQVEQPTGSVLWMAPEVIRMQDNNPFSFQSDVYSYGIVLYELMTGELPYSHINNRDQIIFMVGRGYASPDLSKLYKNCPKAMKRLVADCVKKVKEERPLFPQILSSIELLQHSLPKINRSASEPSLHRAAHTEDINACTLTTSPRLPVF

IC50	SMILES
< 10 nM	Cc1ccc(NC(=O)N2CC[C@@H](CC(F)(F)F)C2)cc1-c1cc(OC2CCC(C)(O)C2)nc(N2CCOCC2)c1 (stereo partly drawn) [Example 223, (3S)-N-(3-[2-[(3-hydroxy-3-methylcyclopentyl)oxy]-6-(morpholin-4-yl)pyridin-4-yl]-4-methylphenyl)-3-(2,2,2-trifluoroethyl)pyrrolidine-1-carboxamide]
< 10 nM	Cc1cc(F)c(NC(=O)N2CCC(C(C)(C)C#N)C2)cc1-c1cc(OCCO)nc(N2CCOCC2)c1 (centres unmarked) [Example 99, 3-(1-cyano-1-methylethyl)-N-[2-fluoro-5-[2-(2-hydroxyethoxy)-6-(morpholin-4-yl)pyridin-4-yl]-4-methylphenyl]pyrrolidine-1-carboxamide]
< 10 nM	Cc1ccc(NC(=O)N2CC[C@@H](CC(F)(F)F)C2)cc1-c1cc(O[C@@H]2CCC(F)(F)C2)nc(N2CCOCC2)c1 [Example 219, (3S)-N-[3-(2-[[(1R)-3,3-difluorocyclopentyl]oxy]-6-(morpholin-4-yl)pyridin-4-yl)-4-methylphenyl]-3-(2,2,2-trifluoroethyl)pyrrolidine-1-carboxamide]
< 10 nM	Cc1ccc(NC(=O)N2CC[C@@H](CC(F)(F)F)C2)cc1-c1cc(OC2(CO)CC2)nc(N2CCOCC2)c1 [Example 231, (S)-N-(3-(2-(1-(hydroxymethyl)cyclopropoxy)-6-morpholinopyridin-4-yl)-4-methylphenyl)-3-(2,2,2-trifluoroethyl)pyrrolidine-1-carboxamide]
< 10 nM	Cc1ccc(NC(=O)N2CC[C@@H](OC(F)(F)F)C2)cc1-c1cc(OCC(C)(C)O)nc(N2CCOCC2)c1 [Example 149, (3R)-N-[3-[2-(2-hydroxy-2-methylpropoxy)-6-(morpholin-4-yl)pyridin-4-yl]-4-methylphenyl]-3-(trifluoromethoxy)pyrrolidine-1-carboxamide]
< 10 nM	Cc1ccc(NC(=O)N2CC[C@H](C(F)(F)F)C2)cc1-c1cnc(OCCO)c(N2CCOCC2)c1 (single isomer, unassigned) [Example 15]
< 10 nM	Cc1cc(F)c(NC(=O)N2CC[C@H](C(C)(F)F)C2)cc1-c1cc(OCCO)nc(N2CCOCC2)c1 (single isomer, unassigned) [Example 33]
< 10 nM	Cc1cc(F)c(NC(=O)N2CC[C@@]3(C2)CC3(F)F)cc1-c1cc(OCCO)nc(N2CCOCC2)c1 (single isomer, unassigned) [Example 63]
< 10 nM	Cc1ccc(NC(=O)N2CC[C@@H](OC(F)(F)F)C2)cc1-c1cc(O[C@H](C)CO)nc(N2CCOCC2)c1 [Example 214, (3R)-N-[3-(2-[[(2R)-1-hydroxypropan-2-yl]oxy]-6-(morpholin-4-yl)pyridin-4-yl)-4-methylphenyl]-3-(trifluoromethoxy)pyrrolidine-1-carboxamide]
< 10 nM	Cc1ccc(NC(=O)N2CC[C@@H](CC(F)(F)F)C2)cc1-c1cc(OC[C@@H](C)O)nc(N2CCO[C@@H](C)C2)c1 [Example 227, (3S)-N-(3-[2-[(2R)-2-hydroxypropoxy]-6-[(2S)-2-methylmorpholin-4-yl]pyridin-4-yl]-4-methylphenyl)-3-(2,2,2-trifluoroethyl)pyrrolidine-1-carboxamide]
< 10 nM	Cc1cc(F)c(NC(=O)N2CC/C(=C/C(F)(F)F)C2)cc1-c1cc(OCCO)nc(N2CCOCC2)c1 [Example 92, (Z)-N-(2-fluoro-5-(2-(2-hydroxyethoxy)-6-morpholinopyridin-4-yl)-4-methylphenyl)-3-(2,2,2-trifluoroethylidene)pyrrolidine-1-carboxamide]
< 10 nM	Cc1cc(F)c(NC(=O)N2C[C@@H](O)C[C@@H](C(F)(F)F)C2)cc1-c1cc(OCCO)nc(N2CCOCC2)c1 [Example 44, (3S,5R)-N-[2-fluoro-5-[2-(2-hydroxyethoxy)-6-(morpholin-4-yl)pyridin-4-yl]-4-methylphenyl]-3-hydroxy-5-(trifluoromethyl) piperidine-1-carboxamide]
< 10 nM	Cc1cc(F)c(NC(=O)N2CC[C@@]3(C2)CC(F)(F)C3(F)F)cc1-c1cc(OCCO)nc(N2CCOCC2)c1 (single isomer, unassigned) [Example 106]
< 10 nM	Cc1cc(F)c(NC(=O)N2CCC(C(C)C(F)(F)F)C2)cc1-c1cc(OCCO)nc(N2CCOCC2)c1 (single isomer, unassigned) [Example 103, N-[2-fluoro-5-[2-(2-hydroxyethoxy)-6-(morpholin-4-yl)pyridin-4-yl]-4-methylphenyl]-3-(1,1,1-trifluoropropan-2-yl)pyrrolidine-1-carboxamide]
< 10 nM	Cc1cc(F)c(NC(=O)N2CCC(C(F)(F)F)C2C)cc1-c1cc(OCCO)nc(N2CCOCC2)c1 (single isomer, unassigned) [Example 67, N-[2-fluoro-5-[2-(2-hydroxyethoxy)-6-(morpholin-4-yl)pyridin-4-yl]-4-methylphenyl]-2-methyl-3-(trifluoromethyl)pyrrolidine-1-carboxamide]
< 10 nM	Cc1ccc(NC(=O)N2CC[C@@H](CC(F)(F)F)C2)cc1-c1cc(O[C@@H]2CC[C@@H](O)C2)nc(N2CCOCC2)c1 [Example 208, (3S)-N-[3-(2-[[(1R,3R)-3-hydroxycyclopentyl]oxy]-6-(morpholin-4-yl)pyridin-4-yl)-4-methylphenyl]-3-(2,2,2-trifluoroethyl)pyrrolidine-1-carboxamide]
< 10 nM	Cc1cc(F)c(NC(=O)N2CC(F)(F)C(F)(F)C2)cc1-c1cc(OCCO)nc(N2CCOCC2)c1 [Example 22, 3,3,4,4-tetrafluoro-N-[2-fluoro-5-[2-(2-hydroxyethoxy)-6-(morpholin-4-yl)pyridin-4-yl]-4-methylphenyl]pyrrolidine-1-carboxamide]
< 10 nM	Cc1cc(F)c(NC(=O)N2CCCC3C2C3C(F)(F)F)cc1-c1cc(OCCO)nc(N2CCOCC2)c1 (single isomer, unassigned) [Example 110, N-[2-fluoro-5-[2-(2-hydroxyethoxy)-6-(morpholin-4-yl)pyridin-4-yl]-4-methylphenyl]-7-(trifluoromethyl)-2-azabicyclo[4.1.0]heptane-2-carboxamide]
< 10 nM	Cc1ccc(NC(=O)Nc2cnn(C(F)(F)F)c2)cc1-c1cnc(OC2CCOCC2)c(N2CCOCC2)c1 [Example 130, 1-[4-methyl-3-[5-(morpholin-4-yl)-6-(oxan-4-yloxy)pyridin-3-yl]phenyl]-3-[1-(trifluoromethyl)pyrazol-4-yl]urea]
< 10 nM	Cc1cc(F)c(NC(=O)N2CC[C@@H](C(F)(F)F)C2)cc1-c1cnc(OC2CCOCC2)c(N2CCOCC2)c1 (single isomer, unassigned) [Example 31]
< 10 nM	Cc1ccc(NC(=O)N2CC[C@H](OC(F)(F)F)C2)cc1-c1cc(OCC(C)(C)O)nc(N2CCOCC2)c1 [Example 154, (3S)-N-[3-[2-(2-hydroxy-2-methylpropoxy)-6-(morpholin-4-yl)pyridin-4-yl]-4-methylphenyl]-3-(trifluoromethoxy)pyrrolidine-1-carboxamide]
< 10 nM	Cc1cc(F)c(NC(=O)N2CC[C@@H](C(F)(F)C(F)(F)F)C2)cc1-c1cc(OCCO)nc(N2CCOCC2)c1 (single isomer, unassigned) [Example 84]
< 10 nM	Cc1cc(F)c(NC(=O)N2C[C@@H]3C[C@]3(C(F)(F)F)C2)cc1-c1cc(OCCO)nc(N2CCOCC2)c1 (single isomer, unassigned) [Example 50]
